The molecules below were run against Tubulin (Bos taurus, UniProt Q6B856+Q862L2+Q862F3) (assay: In vitro inhibition of purified bovine brain tubulin polymerisation in the absence of microtubule-associated proteins.).

Row | SMILES | IC50
1 | COc1cc(C2CCCc3cc4c(cc32)OCO4)cc(OC)c1OC (stereo unspecified) | 2.4e-06 M
2 | COc1ccc(-c2ccc3c(c2)OCO3)c(OC)c1OC | 0.00015 M
3 | COc1cc2c(cc1O)CCCCc1cc(OC)c(OC)c(OC)c1-2 | > 0.000125 M
4 | COc1cc(Cc2ccc3c(c2)OCO3)cc(OC)c1OC | 0.000067 M
5 | COc1ccc(CCc2cc(OC)c(OC)c(OC)c2)cc1O | 1.4e-06 M
6 | COc1cc2c(cc1O)CCCc1cc(OC)c(OC)c(OC)c1-2 | 5.3e-06 M
7 | COc1cc(-c2ccc(OC)c(OC)c2OC)ccc1O | 0.000098 M
8 | COc1cc2c(c(OC)c1OC)C(c1ccc3c(c1)OCO3)CC2 (stereo unspecified) | > 0.0002 M
9 | COc1cc2c(c(OC)c1OC)C(c1ccc3c(c1)OCO3)CCC2 (stereo unspecified) | > 0.0002 M
10 | COc1cc(C2CCc3cc4c(cc32)OCO4)cc(OC)c1OC (stereo unspecified) | 0.000012 M
11 | COc1ccc(-c2ccc(OC)c(=O)cc2)c(OC)c1OC | 7.5e-06 M
12 | COc1ccc(CCCc2cc(OC)c(OC)c(OC)c2)cc1O | 2.4e-06 M
13 | COc1cc2c(cc1O)CCc1cc(OC)c(OC)c(OC)c1-2 | 0.000104 M
14 | COc1ccc(Cc2cc(OC)c(OC)c(OC)c2)cc1O | 1.5e-06 M
15 | COc1ccc(CC(OC(C)=O)c2cc(OC)c(OC)c(OC)c2)cc1O (stereo unspecified) | 5e-06 M
16 | COc1ccc(CCCCc2cc(OC)c(OC)c(OC)c2)cc1O | 5.8e-06 M

From ChEMBL document CHEMBL1125985, “Tubulin binding of conformationally restricted bis-aryl compounds” (Bioorg Med Chem Lett, 1991)
